Reference: US8828997B2, “2,3-dihydro-1H-imidazo(1,2-a)pyrimidin-5-one derivatives, preparation thereof, and pharmaceutical use thereof” (Sanofi, priority 2009, dated 2014)

Columns and labels:
Type in all cases: cell-based
[1] = system: translocation of the LC3 protein in Hela GFP-LC3 cells; assay: Translocation of the LC3 protein in Hela human cells measured by image analysis cytometry (test C, autophagy); details: Homo sapiens, HeLa, 2 h, EBSS + 10 μM hydroxychloroquine, cells with LC3 granulations, absolute IC50
Experimental: Inhibitory activity of the molecules on autophagy is measured by means of the translocation of the LC3 protein from the cytoplasm to the autophagosomes. For this, Hela cells were transfected with a vector encoding the chimeric protein GFP-LC3. A Hela clone stably expressing the GFP-LC3 protein was selected.
Study of the Translocation of the LC3 Protein in Hela Human Cells, Measured by Image Analysis Cytometry (Test C):
On day 1, the Hela GFP-LC3 cells are seeded into 96-well plates coated with poly-D-lysine (Greiner, #655946) at the concentration of 15000 cells/well in 200 μl of DMEM medium (DMEM Gibco #11960-044) containing 10% of foetal calf serum (FCS Gibco, #10500-056) and 1% glutamine (L-Glu Gibco #25030-024), and incubated at 37° C., 5% CO2, overnight.
On day 2, the cells are washed twice with EBSS (Sigma #E3024). The cells are then incubated in EBSS, 10 μM hydroxychloroquine and test products, for 2 hours at 37° C. in the presence of 5% CO2. The molecules are diluted in dimethyl sulphoxide (DMSO Sigma #D2650), the final DMSO percentage being 0.1%. The molecules are tested at increasing concentrations in a range that can extend from 10 nM to 1 μM.
After this incubation, the cells are fixed with 4% paraformaldehyde (Sigma #HT501128 4L) for 10 min. The cells are then washed twice with PBS and the nuclei then stained with 2 μg/ml of Hoechst 33342 (Invitrogen #H3570). The 96-well plates are then read with the iCyte image analysis cytometer (Compucyte).
The activity of the product is translated to IC50, obtained from a dose-response curve of various concentrations tested and representing the dose giving 50% specific inhibition (absolute IC50). 2 independent experiments make it possible to calculate the mean of the IC50 values.

[2] = system: AKT protein phosphorylated on serine 473 (pAKT-S473) in PC3 human prostate carcinoma cells; assay: pAKT expression in PC3 human prostate carcinoma cells measured by western blotting (test A); details: PC-3, 1 to 2 h incubation, absolute IC50
Experimental: (§1) The inhibitory activity of the molecules on AKT phosphorylation is measured either by western blotting using the technique described below, or by the MSD Multi-spot Biomarker detection technique from Meso Scale Discovery also described below.
Study of pAKT Expression in PC3 Human Prostate Carcinoma Cells Measured by Western Blotting (test A):
This test is based on measuring the expression of the AKT protein phosphorylated on serine 473. The phosphorylation of AKT (pAKT) is measured by western blotting in the PC3 human prostate carcinoma line (ATCC CRL-1435), using an antibody that specifically recognises pAKT-S473.
(§2) On day 1, the PC3 cells are seeded into 6-well plates (TPP, #92006) at the concentration of 0.8×10^6 cells/well in 1800 μl of DMEM medium (DMEM Gibco #11960-044) containing 10% of foetal calf serum (SVF Gibco, #10500-056) and 1% glutamine (L-Glu Gibco #25030-024), and incubated at 37° C., 5% CO2, overnight.
(§3) On day 2, the cells are incubated in the presence or absence of the test products for 1 to 2 hours at 37° C. in the presence of 5% CO2. The molecules, diluted in dimethyl sulphoxide (DMSO Sigma #D2650), are added from a 10-times concentrated stock solution, the final percentage of DMSO being 0.1%. The molecules are tested either at a single concentration of less than or equal to 10 μM, or at increasing concentrations in a range that can extend from less than 1 nM to 10 μM.
After this incubation, the cells are lysed for the preparation of the proteins. After the culture medium has been drawn off, the cells are rinsed with 1 ml of PBS (DPBS Gibco, #14190-094), recovered by scraping in 200 μl of complete HNTG buffer and transferred into a 96-well plate (Greiner #651201), and lysed for 1 h on ice. The HNTG buffer is composed of the following mixture: 50 mM hepes, 150 mM NaCl, 1% triton, 10% glycerol, with extemporaneous addition of one Mini Protease Inhibitor Cocktail tablet (Roche 1836153) and of one Phosphatase Inhibitor Cocktail tablet (Roche104906837001) per 10 ml of buffer.
The lysate is centrifuged for 10 min at 6000 rpm. 155 μl of supernatant are recovered. 150 μl are incubated for denaturation for 5 min at 95° C. in the presence of 4× NuPAGE LDS Sample Buffer diluted 4-fold (InVitrogen ref NP0007) and of 10× NuPAGE Sample Reducing Agent diluted 10-fold (InVitrogen ref NP0009). These samples are then frozen at −20° C. 5 μl are assayed by the microBCA technique according to the technical bulletin of the MicroBCA Protein Assay Kit (Pierce #23235).
For protein separation, 20 μg of proteins are loaded on to a NU-PAGE 4-12% Bis Tris Gel 12 well (InVitrogen ref NP0322BOX) and the migration is carried out for 1 h 30 in 20× NU-PAGE MOPS SDS Running Buffer diluted 20-fold (InVitrogen ref NP0001), at 150 volts.
The gel is then transferred on to an Invitrolon PVDF membrane (Invitrogen #LC2007) permeabilised before and after a few seconds in ethanol (Ethanol Fischer Scientific #E/0600DF/15).
The transfer is carried out in a Biorad tank at 30 volts overnight or at 60 volts for 3 hours, in the presence of 20× NUPAGE Transfer Buffer diluted 20-fold (InVitrogen ref NP0006).
The membrane is then saturated in saturating solution composed of TBS (10× Tris Buffered Saline, Sigma #T5912, diluted 10-fold), 0.1% Tween 20 (Sigma #P5927) and 3% BSA (Bovine Albumin Serum Fraction V, Sigma #A4503) for 6 h after overnight transfer or else for 1 h after transfer for a period of 3 h.
The primary antibodies are diluted to 1/1000 for the anti-phospho AKT-Ser473 antibody (1931-12, rabbit monoclonal, cat#4058 from Cell Signaling Technology Abcam), in saturating solution composed of PBS, 0.1% Tween 20 and 3% BSA, and then shaken overnight at 4° C.
Two rinses for 5 min in washing solution composed of TBS and 0.1% Tween 20 are carried out before hybridisation of the secondary antibodies. […]

[3] = system: P. falciparum (highly chloroquine-resistant strain Fcm29-Cameroon); assay: Antimalarial activity test (radioactive micromethod of Desjardins, tritiated hypoxanthine incorporation); details: Plasmodium falciparum, Erythrocyte, infected human erythrocytes, 48 h
Experimental: Antimalarial Activity Test
The antimalarial activity tests are carried out according to the radioactive micromethod of Desjardins (R. E. Desjardins, C. J. Canfield, J. D. Haynes, J. D. Chulay, Antimicrob. Agents Chemother., 1979, 16, 710-718). The assays are carried out in 96-well microplates (Test Plates Ref. 92696, Techno Plastic Products Ag, Zollstrasse 155, CH-8219 Trasadingen). The P. falciparum strains are cultured in solutions of RPMI 1640 supplemented with 5% of human serum with a haematocrit at 2% and a blood parasite concentration at 1.5%. For each assay, the parasites are incubated with selected concentrations of drugs for 48 h at 37° C. in a humid atmosphere and at 5% CO2. Artemisinin, artesunate and also chloroquine diphosphate are used as reference molecules. The first dilution of the drug is prepared at 1 mg/ml in dimethyl sulphoxide. The range of dilutions of the successive daughter solutions is also prepared in dimethyl sulphoxide. Each daughter dilution is subsequently diluted to 1/50 in RPMI 1640 supplemented with 5% of human serum, all the dilutions being carried out at 37° C. These dilutions are then added to the parasites in culture in the microplates. After addition of the drug, the parasites are in culture in RPMI 1640 containing 5% of human serum and 1% of dimethyl sulphoxide. The parasite growth is measured by incorporation of tritiated hypoxanthine (added 24 h after the beginning of the exposure to the drug) compared with the incorporation in the absence of drug.
The activity of the product is translated to % inhibition of the growth of P. falciparum (highly chloroquine-resistant strain Fcm29-Cameroon) at 1 μM and 0.1 μM in an in vitro test using infected human erythrocytes.

[4] = system: AKT protein phosphorylated on serine 473 (P-AKT-S473) in PC3 human prostate carcinoma cells; assay: pAKT expression in PC3 human prostate carcinoma cells measured by MSD Multi-spot Biomarker detection (test B); details: Homo sapiens, PC-3, P-AKT-S473, PC3 cells, MSD sandwich immunoassay, 1 to 2 h incubation, absolute IC50
Experimental: as §1
Study of pAKT Expression in PC3 Human Prostate Carcinoma Cells Measured by the MSD Multi-Spot Biomarker Detection Technique from Meso Scale Discovery (Test B):
This test is based on measuring the expression of the AKT protein phosphorylated on serine 473 (P-AKT-S473), in the PC3 human prostate carcinoma line, by means of the technique based on a sandwich immunoassay using the MSD Multi-spot Biomarker Detection kit from Meso Scale Discovery: phospho-Akt (Ser473) whole cell lysate kit (#K151CAD) or phospho-Akt (Ser473)/Total Akt whole cell lysate kit (#K151OOD). The primary antibody specific for P-AKT-S473 (Kit #K151CAD) is coated onto an electrode in each well of the 96-well plates of the MSD kit: after the addition of a protein lysate to each well, the signal is visualised by adding a secondary detection antibody labelled with an electrochemoluminescent compound. The procedure followed is that described in the kit.
as §2, with “96-well” for “6-well”, “#92096)” for “#92006)”, “35 000” for “0.8×10^6”, “200” for “1800”, “(FCS” for “(SVF”
as §3, with “h” for “hours”, “5% of” for “5%”, “20-times” for “10-times”
After this incubation, the cells are lysed for the preparation of the proteins. For this, after the culture medium has been drawn off, 50 μl of complete Tris Lysis Buffer of the MSD kit containing the protease and phosphatase inhibitor solutions are added to the wells and the cells are lysed for 1 h at 4° C. with shaking. At this stage, the plates containing the lysates can be stored at −20° C. or at −80° C.
The wells of the 96-well plates of the MSD kit are saturated for 1 h at ambient temperature with the blocking solution of the MSD kit. Four washes are carried out with 150 μl of Tris Wash Buffer of the MSD kit. The lysates previously prepared are transferred into the 96-well multi-spot plates of the MSD kit and incubated for 1 h at ambient temperature, with shaking. Four washes are carried out with 150 μl of Tris Wash Buffer of the MSD kit. 25 μl of the MSD sulfo-tag detection antibody solution are added to the wells and incubated for 1 h at ambient temperature, with shaking. Four washes are carried out with 150 μl of Tris Wash Buffer of the MSD kit. 150 μl of Read Buffer of the MSD kit are added to the wells and the plates are read immediately on the S12400 instrument from Meso Scale Discovery.
The instrument measures a signal for each well. Wells without cells and containing the lysis buffer serve to determine the background noise that will be subtracted from all the measurements (min). The wells containing cells in the absence of product and in the presence of 0.1% DMSO are considered to be the 100% signal (max). The percentage inhibition is calculated for each concentration of test product according to the following formula: (1-((test−min)/(max−min)))×100.
The activity of the product is translated to IC50, obtained from a dose-response curve of the various concentrations tested and representing the dose giving 50% specific inhibition (absolute IC50). 2 independent experiments make it possible to calculate the mean of the IC50 values.

C[C@@]1(C(F)(F)F)Cn2c(nc(N3CCOCC3)cc2=O)N1CCCc1ccccc1 [Example 5, (S)-2-Methyl-7-morpholin-4-yl-1-(3-phenylpropyl)-2-trifluoromethyl-2,3-dihydro-1H-imidazo[1,2-a]pyrimidin-5-one]
IC50 [1]: 73 nM
IC50 [2]: 30 nM

C[C@@]1(C(F)(F)F)Cn2c(nc(N3CCOCC3)cc2=O)N1CCc1cccc(Cl)c1 [Example 29, (2S)-1-[2-(3-Chlorophenyl)ethyl]-2-methyl-7-(morpholin-4-yl)-2-(trifluoromethyl)-2,3-dihydroimidazo[1,2-a]pyrimidin-5(1H)-one]
inhibition at 1 µM [3]: 52%
IC50 [1]: 261 nM
IC50 [4]: 6 nM

C[C@@]1(C(F)(F)F)Cn2c(nc(N3CCOCC3)cc2=O)N1CCc1ccc(Cl)cc1 [Example 28, (2S)-1-[2-(4-Chlorophenyl)ethyl]-2-methyl-7-(morpholin-4-yl)-2-(trifluoromethyl)-2,3-dihydroimidazo[1,2-a]pyrimidin-5(1H)-one]
inhibition at 0.1 µM ([3]; 0.1 μM): 14%
inhibition at 1 µM [3]: 53%
IC50 [1]: 198 nM
IC50 [4]: 10 nM

CCC(c1ccccc1)N1c2nc(N3CCOCC3)cc(=O)n2C[C@@]1(C)C(F)(F)F (single isomer, unassigned) [Example 14, (S)-2-Methyl-7-morpholin-4-yl-1-((S) or (R)-1-phenylpropyl)-2-trifluoromethyl-2,3-dihydro-1H-imidazo[1,2-a]pyrimidin-5-one]
IC50 [2]: 174 nM

CC(c1ccccc1)N1c2nc(N3CCOCC3)cc(=O)n2C[C@@]1(C)C(F)(F)F (mixture of isomers) [Example 16, (2S)-2-Methyl-7-(morpholin-4-yl)-1-((R) and (5)-1-phenylethyl)-2-(trifluoromethyl)-2,3-dihydroimidazo[1,2-a]pyrimidin-5(1H)-one]
IC50 [2]: 79 nM
